From patent US5945406A, “Therapeutic compounds with pyrimidine base” (Oxford Glycosciences (UK) Ltd., priority 1995, dated 1999)

How the values were obtained:
[1] = tested on: human HepG2 flank tumours; experiment: Efficacy in vivo: antitumour activity against subcutaneous human HepG2 flank tumours in nude mice (Example 20); parameters: species or system human tumour in nude mice; settings: for Average tumour size (at sacrifice): control 10.4; for Average tumour size (at sacrifice) / Number of mice surviving after tumour innoculation, day 17 / Number of mice surviving after tumour innoculation, day 25 / Number of mice surviving after tumour innoculation, day 30 / appearance of treated animals / toxic side effects to the animals / rate of disease progression in treated animals / survival time of treated mice over untreated animals: 1300 mg/kg; for Number of mice surviving after tumour innoculation, day 0: day 0 after tumour inoculation; for Number of mice surviving after tumour innoculation, day 17: day 17 after tumour inoculation; for Number of mice surviving after tumour innoculation, day 25: day 25 after tumour inoculation; for Number of mice surviving after tumour innoculation, day 30: day 30 after tumour inoculation
Description: Nude mice were inoculated with subcutaneous human HepG2 flank tumours to determine the antitumour activity of Compound 1 in vivo. After allowing the tumours to develop for the first seven days, we attempted to prevent tumour progression by seven ip treatments every 48 hours at doses of 1300 mg/kg.

nude mice [2] = settings: mouse, in vivo, ip
Description: The toxicity of Compound 1 (as described in Example 1) relative to 5-FU was determined in nude mice. Clinical grade 5-FU was used to provide a point of comparison with other toxicity studies in the literature. Animals were injected six times ip, in groups of 5, every 48 hours, with various doses of 5-FU or Compound 1.

nude mice [3] = settings: single bolus toxicity; NCI data base; cited from earlier work
[4] = seven ip treatments every 48 hours

Q: Which “Average tumour size (at sacrifice)” value [1, 4] does the source give for “1-β-L-Galactopyranosyl-5-fluorouracil and 1 -α-L-Galactopyranosyl-5-fluorouracil [Compound 2]” here?
A: 5.6

Q: What about the “Number of mice surviving after tumour innoculation, day 0” value [1] of the same molecule?
A: 5 mice

Q: And the “Number of mice surviving after tumour innoculation, day 17” value [1, 4]?
A: 5 mice

Q: What about the “Number of mice surviving after tumour innoculation, day 25” value [1, 4] of the same molecule?
A: 3 mice

Q: What about the “Number of mice surviving after tumour innoculation, day 30” value [1, 4] of the same molecule?
A: 2 mice

Q: What about the “appearance of treated animals” value ([1]; in vivo, ip) of the same molecule?
A: very healthy appearance

Q: And the “toxic side effects to the animals” value ([1]; in vivo, ip)?
A: without causing any toxic side effects

Q: What about the “rate of disease progression in treated animals” value [1, 4] of the same molecule?
A: significantly slowed the rate by which the disease progressed

Q: What about the “survival time of treated mice over untreated animals” value [1, 4] of the same molecule?
A: increased survival time

Q: Which “Average tumour size (at sacrifice)” value [1, 4] does the source give for “1-β-D-Galactopyranosyl-5-fluorouracil and 1-α-D-Galactopyranosyl-5-fluorouracil [Compound 1]” here?
A: 9.4

Q: What about the “Number of mice surviving after tumour innoculation, day 0” value [1] of the same molecule?
A: 5 mice

Q: And the “Number of mice surviving after tumour innoculation, day 17” value [1, 4]?
A: 3 mice

Q: And the “Number of mice surviving after tumour innoculation, day 25” value [1, 4]?
A: 2 mice

Q: And the “Number of mice surviving after tumour innoculation, day 30” value [1, 4]?
A: 1 mice

Q: And the “appearance of treated animals” value ([1]; in vivo, ip)?
A: very healthy appearance

Q: What about the “toxic side effects to the animals” value ([1]; in vivo, ip) of the same molecule?
A: without causing any toxic side effects

Q: What about the “rate of disease progression in treated animals” value [1, 4] of the same molecule?
A: significantly slowed the rate by which the disease progressed

Q: And the “survival time of treated mice over untreated animals” value [1, 4]?
A: increased survival time

Q: And the “MAD (maximal achievable dose)” value (nude mice [2])?
A: 1300 mg/kg

Q: What does the source list for `CC(=O)N[C@@H]1[C@@H](O)[C@@H](O)[C@@H](CO)O[C@H]1n1cc(F)c(=O)[nH]c1=O` [Compound 10, 1-(β-D-2-Deoxy-2-N-acetylgalactopyranosyl)-5-fluorouracil]?
A: Average tumour size (at sacrifice) [1, 4]: 9; Number of mice surviving after tumour innoculation, day 0 [1]: 5 mice; Number of mice surviving after tumour innoculation, day 17 [1, 4]: 3 mice; Number of mice surviving after tumour innoculation, day 25 [1, 4]: 2 mice; Number of mice surviving after tumour innoculation, day 30 [1, 4]: 1 mice; appearance of treated animals [1, 4]: very healthy appearance; rate of disease progression in treated animals [1, 4]: significantly slowed the rate by which the disease progressed; survival time of treated mice over untreated animals [1, 4]: increased survival time; toxic side effects to the animals [1, 4]: without causing any toxic side effects

Q: Which results are given for “1-(β-L-2-Arabinopyranosyl)-5-fluorouracil and 1-(α-L-2-Arabinopyranosyl)-5-fluorouracil [Compound 6]”?
A: Average tumour size (at sacrifice) [1, 4]: 6.2; Number of mice surviving after tumour innoculation, day 0 [1]: 5 mice; Number of mice surviving after tumour innoculation, day 17 [1, 4]: 4 mice; Number of mice surviving after tumour innoculation, day 25 [1, 4]: 2 mice; Number of mice surviving after tumour innoculation, day 30 [1, 4]: 2 mice; toxic side effects to the animals ([1]; in vivo, ip): without causing any toxic side effects; appearance of treated animals [1, 4]: very healthy appearance; rate of disease progression in treated animals [1, 4]: significantly slowed the rate by which the disease progressed; survival time of treated mice over untreated animals [1, 4]: increased survival time

Q: Which results are given for `O=c1[nH]cc(F)c(=O)[nH]1` [Compound 5-FU, 5-Fluorouracil, reference compound]?
A: Average tumour size (at sacrifice) [1, 4]: 10.2; Number of mice surviving after tumour innoculation, day 0 [1]: 5 mice; Number of mice surviving after tumour innoculation, day 17 [1, 4]: 3 mice; Number of mice surviving after tumour innoculation, day 25 [1, 4]: 2 mice; Number of mice surviving after tumour innoculation, day 30 [1, 4]: 0 mice; LD10 (nude mice [3]): 165 mg/kg; LD50 (nude mice [3]): 360 mg/kg
